What all share (assay): NCI anticancer screen, dose series, 48 h
Assay [1] relates to HT29 colon.
The test system of assay [2] is KM20L2 colon.
Assay [3] relates to SNB-78 CNS.
Assay [4] concerns NCI-H522 lung.
Assay [5] has as its system U251 CNS.
The subject of assay [6] is NCI-H460 lung.
Assay [7] deals with MALME-3M melanoma.
Assay [8] concerns DMS 114 small cell lung.
Assay [9] has as its system DMS 273 small cell lung.

Results on 22 molecules are retold here after PubChem BioAssay (NCI).

The structures appear in SMILES notation.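 Exposure lasted 48 hours, with cells grown in 96-well plates and compounds tested at five concentrations. Abbreviation: GI50, concentration required for 50% inhibition of growth. TGI marks complete inhibition of growth.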

On to `COc1cc(C(C#N)NNC(=O)c2ccccc2O)ccc1O` (configuration not stated), for which the TGI in assay [1] was over 100 µM; in assay [2], over 100 µM; in [3], over 100 µM; in [4] it was 28.7 µM; in [5], over 100 µM; in assay [6], over 100 µM. The TGI in [7] was over 100 µM.
On to `O=C(N=Nc1c(O)[nH]c2ccccc12)c1ccccc1O`, for which the TGI in assay [1] is over 100 µM; in [2], over 100 µM; in assay [3], over 100 µM; in [8], over 100 µM; in [4] it was over 100 µM; in assay [5], 72.2 µM. Moreover, the TGI in assay [6] and in assay [7] was over 100 µM in each case.
For the molecule `CCCCCCCCCCCCC(SCCNC(=O)CCNC(=O)C(O)C(C)(C)COP(=O)(O)OP(=O)(O)OCC1OC(n2cnc3c(N)ncnc32)C(O)C1OP(=O)(O)O)C(=O)NCC(N)=O` (configuration not stated), the TGI in assay [1], in assay [9], in assay [2], in assay [8], in assay [4] and in assay [5] was over 100 µM each time. Moreover, the TGI in assay [6] and in [7] was over 100 µM each time.
With `COc1ccc2c(C3(O)CCNCC3)c[nH]c2c1`, the TGI in [1], in assay [9], in assay [2], in assay [4], in [5] and in assay [6] was over 100 µM in each case. The same molecule had a TGI in [7] of over 100 µM.
As for `O=S(=O)(O)c1ccc2cc(N=Nc3cc(S(=O)(=O)O)c4cccnc4c3O)ccc2c1`, the TGI in [1], in assay [4], in [5], in [6] and in assay [7] was over 100 µM throughout.
For `O=C(O)C(Cc1ccc(O)c([N+](=O)[O-])c1)N1C(=O)c2ccccc2C1=O` (configuration not stated), the TGI in [1], in assay [4], in assay [5], in [6] and in assay [7] was over 100 µM throughout.
Consider `N#C/C(=C(\O)C(=O)O)c1ccc(-c2cccc3ccccc23)cc1`, for which the TGI in assay [1], in assay [4], in assay [5], in [6] and in assay [7] was over 100 µM throughout.
Regarding `Cc1cc(O)cc(C)c1/C=C/c1cncc(C(=O)N(C)C)c1`, the GI50 in assay [1], in assay [4], in [5], in assay [6] and in assay [7] was over 25 µM each time. For the same molecule, the TGI in [1], in [4], in assay [5], in assay [6] and in assay [7] was over 25 µM each time.
On to `O=C1NC(=O)C(c2ccccc2Cl)=C1Nc1cccc(O)c1`, for which the GI50 was 2.79 µM in [1]; 2.17 µM in [4]; 9.32 µM in [5]; 7.12 µM in assay [6]; over 25 µM in assay [7]. The TGI in assay [1], in [4], in [5], in assay [6] and in assay [7] was over 25 µM in each case.
For `CCCCc1cc(O)ccc1O`, the GI50 in assay [1] is 43.1 µM; in assay [4], 2.28 µM; in [5], 37.4 µM; in assay [6], 39 µM; in assay [7], 21.6 µM. Also, the TGI in [1] is over 100 µM; in assay [4] it was 6.97 µM; in assay [5] it was over 100 µM; in assay [6] it was over 100 µM; in assay [7], 65.4 µM.
Consider `CCN(CC)C(=S)SSC1CCCCC1`, for which the GI50 in [1] was 15.3 µM; in [4], 2.91 µM; in [5], 14.2 µM; in assay [6], 18.3 µM; in assay [7], 20.8 µM. For the same molecule, the TGI in assay [1] was 34.8 µM; in [4], 12.7 µM; in assay [5], 29.1 µM; in assay [6], 52.7 µM; in [7] it was 46.3 µM.
Turning to `Cc1ccc(-c2cc3nc(-c4ccccc4)nc(C(Cl)Cl)n3n2)cc1`, the GI50 is 1.2 µM in assay [1]; over 50 µM in assay [4]; 0.419 µM in [5]; 0.45 µM in assay [6]; 36.1 µM in [7]. Also, the TGI in assay [1] was 5.32 µM; in assay [4] it was over 50 µM; in assay [5] it was 1.6 µM; in [6], 1.42 µM; in [7], over 50 µM.
Take `CC1(C)OC2C(=O)OC(COCc3ccccc3)C2O1` (configuration not stated): the TGI in assay [1], in assay [9], in [2], in assay [3], in assay [5] and in assay [6] was over 100 µM in each case. The molecule also yielded a TGI in assay [7] of over 100 µM.
Regarding `C=C1C(=O)O[C@H]2[C@H]1CC/C(COC(=O)c1ccc(C(=O)O)s1)=C\CC[C@@]1(C)O[C@@H]21`, the GI50 in [1] was 1.56 µM; in assay [4] it was 1.93 µM; in [5], 2.61 µM; in assay [6], 3.33 µM; in assay [7] it was 2.44 µM. The TGI was found to be 3.5 µM in [1]; 3.87 µM in [4]; 8.37 µM in [5]; 10.8 µM in [6]; 4.25 µM in assay [7].
For `CCC(=O)N1C/C(=C/c2ccc(OC)cc2)C(=O)/C(=C/c2ccc(OC)cc2)C1`, the GI50 is 1.18 µM in assay [1]; 1.85 µM in assay [4]; 1.78 µM in assay [5]; 2.05 µM in [6]; 2.47 µM in assay [7]. The TGI in [1] was found to be 4.13 µM; in assay [4], 3.86 µM; in assay [5] it was 4.08 µM; in [6], 4.48 µM; in [7], 6.26 µM.
As to `Cc1ccc2c(c1)sc(-c1ccc(N(C)C)cc1)[n+]2C`, the GI50 was 0.854 µM in assay [1]; 1.45 µM in [4]; 0.467 µM in assay [5]; 1.18 µM in [6]; 1.38 µM in assay [7]. Moreover, the TGI was over 37.9 µM in assay [1]; over 100 µM in assay [4]; over 76 µM in assay [5]; 8.25 µM in assay [6]; 15.4 µM in assay [7].
As for `COC1C(=O)CCC2(CO2)C1(O)C1(C)OC1CCC(C)C` (configuration not stated), the TGI in [1], in [4], in [5], in assay [6] and in assay [7] was over 100 µM in each case.
With `CCOC(=O)/C=C/c1ccc(C(=O)OCC)[nH]1`, the GI50 in assay [1] was 2.82 µM; in assay [4] it was 2.69 µM; in assay [5], 3.92 µM; in [6], 3.08 µM; in [7], 2.89 µM. Also, the TGI was 14.2 µM in [1]; 8.89 µM in assay [4]; over 100 µM in assay [5]; 14.5 µM in [6]; over 100 µM in assay [7].
On to `CCOC(=O)c1c2ccc(/C=C/C(=O)OC)ccc-2c(C(=O)OCC)c1N`, for which the TGI in assay [1], in [9], in assay [2], in assay [8], in assay [4] and in assay [6] was over 100 µM each time. Besides, the TGI in [7] was over 100 µM.
Consider `O=c1oc2c3ccc4ccccc4c3n(Cc3nc4ccccc4[nH]3)c2c2ccccc12`, for which the TGI is over 63.4 µM in assay [1]; over 100 µM in [2]; over 100 µM in assay [3]; over 100 µM in assay [8]; over 100 µM in [4]; over 100 µM in assay [5]. For the same molecule, the TGI in assay [6] and in assay [7] was over 100 µM in each case.
Turning to `CC1(C)C(=O)/C(=C\c2ccco2)C[C@]2(C)[C@H]3CC=C4[C@@H]5C[C@](C)(C(=O)O)CC[C@]5(C)CC[C@@]4(C)[C@]3(C)CC[C@@H]12`, the GI50 is 11.7 µM in [1]; 9.26 µM in assay [4]; 7.92 µM in assay [5]; 5.45 µM in [6]; 12.7 µM in [7]. Also, the TGI amounted to 28.6 µM in assay [1]; 25.6 µM in assay [4]; 24.8 µM in assay [5]; 20.9 µM in [6]; 29.3 µM in assay [7].
For `CCN(CC)CC(C)Nc1ccc(C)c2sc3ccccc3c(=O)c12` (configuration not stated), the GI50 in assay [1] was 3.29 µM; in assay [4] it was 10.9 µM; in [5], 3.43 µM; in assay [6] it was 2.05 µM; in assay [7], 2.45 µM. Further, the TGI in assay [1] was 10.8 µM; in assay [4], 28.7 µM; in assay [5], 16.3 µM; in assay [6], 8.25 µM; in [7], 8.29 µM.
